According to patent US12097241B2, “Methods of treating kidney failure, and/or improving or stablizing renal function using modified relaxin polypeptides” (BRISTOL-MYERS SQUIBB COMPANY, priority 2017, dated 2024):

Molecular target: T1, human RXFP1 receptor (Homo sapiens, UniProt Q9HBX9)
T1 construct: expressed in transfected cells
T1 sequence (Q9HBX9 1-757): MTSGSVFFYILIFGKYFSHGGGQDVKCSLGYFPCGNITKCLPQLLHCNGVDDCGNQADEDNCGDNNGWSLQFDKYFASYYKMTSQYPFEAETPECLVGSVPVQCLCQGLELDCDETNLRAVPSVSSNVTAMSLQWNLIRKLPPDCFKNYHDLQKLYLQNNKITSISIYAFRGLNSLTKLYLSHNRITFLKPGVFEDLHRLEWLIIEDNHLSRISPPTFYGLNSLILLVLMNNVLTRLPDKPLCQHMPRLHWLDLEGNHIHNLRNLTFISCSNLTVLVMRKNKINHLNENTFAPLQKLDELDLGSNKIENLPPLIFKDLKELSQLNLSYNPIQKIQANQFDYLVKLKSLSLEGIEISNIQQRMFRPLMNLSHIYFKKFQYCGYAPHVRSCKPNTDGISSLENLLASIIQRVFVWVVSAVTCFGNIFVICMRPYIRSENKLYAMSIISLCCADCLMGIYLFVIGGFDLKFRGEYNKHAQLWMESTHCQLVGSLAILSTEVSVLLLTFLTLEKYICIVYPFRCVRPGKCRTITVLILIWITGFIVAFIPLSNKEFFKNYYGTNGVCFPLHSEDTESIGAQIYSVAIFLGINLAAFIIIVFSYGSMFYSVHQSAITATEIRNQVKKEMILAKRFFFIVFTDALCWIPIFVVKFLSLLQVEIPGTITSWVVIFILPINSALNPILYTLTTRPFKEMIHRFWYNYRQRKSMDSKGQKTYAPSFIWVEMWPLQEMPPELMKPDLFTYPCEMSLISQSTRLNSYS
Test: Intracellular cAMP accumulation assay
Assay type: cell-based

Compound | EC50
CCCCCCCCCCCCCCC(=O)N[C@@H](CCC(=O)N[C@@H](CCC(=O)O)C(=O)N[C@@H](CCC(=O)O)C(=O)N[C@@H](CCC(=O)O)C(=O)N[C@@H](CCC(=O)O)C(=O)N[C@@H](CCC(=O)O)C(=O)N[C@@H](CCC(=O)O)C(=O)NCCON=C(C)c1ccc(C[C@H](N)C(=O)N[C@@H](CC(C)C)C(=O)N[C@@H](Cc2ccc(O)cc2)C(=O)N[C@@H](CO)C(=O)N[C@@H](C)C(=O)N[C@@H](CC(C)C)C(=O)N[C@@H](C)C(=O)N[C@@H](CC(N)=O)C(=O)N[C@@H](CCCCN)C(=O)N[C@H]2CSSC[C@@H]3NC(=O)CNC(=O)[C@H](C(C)C)NC(=O)[C@H](Cc4c[nH]cn4)NC(=O)[C@H](CSSC[C@H](NC(=O)[C@H](CC(C)C)NC(=O)[C@H](CCCCN)NC(=O)[C@@H](NC(=O)[C@@H](NC(=O)[C@H](CCC(=O)O)NC(=O)[C@H](CCC(=O)O)NC(=O)[C@H](CCSC)NC(=O)[C@H](Cc4c[nH]c5ccccc45)NC(=O)[C@H](CO)NC(=O)[C@H](C)N)C(C)C)[C@@H](C)CC)C(=O)NCC(=O)N[C@@H](CCCNC(=N)N)C(=O)N[C@@H](CCC(=O)O)C(=O)N[C@@H](CC(C)C)C(=O)N[C@@H](C(C)C)C(=O)N[C@@H](CCCNC(=N)N)C(=O)N[C@@H](C)C(=O)N[C@@H](CCC(N)=O)C(=O)N[C@@H]([C@@H](C)CC)C(=O)N[C@@H](C)C(=O)N[C@@H]([C@@H](C)CC)C(=O)N[C@H](C(=O)NCC(=O)N[C@@H](CCSC)C(=O)N[C@@H](CO)C(=O)N[C@H](C(=O)N[C@@H](Cc4c[nH]c5ccccc45)C(=O)N[C@@H](CO)C(=O)O)[C@@H](C)O)CSSC[C@@H](C(=O)O)NC(=O)[C@H](Cc4ccccc4)NC(=O)[C@H](CCCNC(=N)N)NC(=O)[C@H](C)NC(=O)[C@H](CC(C)C)NC(=O)[C@H](CO)NC(=O)[C@H](CCCNC(=N)N)NC(=O)[C@H](CCCCN)NC(=O)[C@H]([C@@H](C)O)NC3=O)NC2=O)cc1)C(=O)O [AQ1-EEEEEE-Glu^γ-C14-CH3] | 0.38 nM
CCCCCCCCCCCCCCC(=O)N[C@@H](CCC(=O)N[C@@H](CCC(=O)O)C(=O)N[C@@H](CCC(=O)O)C(=O)N[C@@H](CCC(=O)O)C(=O)N[C@@H](CCC(=O)O)C(=O)N1CCC[C@H]1C(=O)N[C@@H](CCC(=O)O)C(=O)N[C@@H](CCC(=O)O)C(=O)N[C@@H](CCC(=O)O)C(=O)N[C@@H](CCC(=O)O)C(=O)N1CCC[C@H]1C(=O)N[C@@H](CCC(=O)O)C(=O)N[C@@H](CCC(=O)O)C(=O)N[C@@H](CCC(=O)O)C(=O)N[C@@H](CCC(=O)O)C(=O)N1CCC[C@H]1C(=O)N[C@@H](CCC(=O)O)C(=O)N[C@@H](CCC(=O)O)C(=O)N[C@@H](CCC(=O)O)C(=O)N[C@@H](CCC(=O)O)C(=O)NCCON=C(C)c1ccc(C[C@H](N)C(=O)N[C@@H](CC(C)C)C(=O)N[C@@H](Cc2ccc(O)cc2)C(=O)N[C@@H](CO)C(=O)N[C@@H](C)C(=O)N[C@@H](CC(C)C)C(=O)N[C@@H](C)C(=O)N[C@@H](CC(N)=O)C(=O)N[C@@H](CCCCN)C(=O)N[C@H]2CSSC[C@@H]3NC(=O)CNC(=O)[C@H](C(C)C)NC(=O)[C@H](Cc4c[nH]cn4)NC(=O)[C@H](CSSC[C@H](NC(=O)[C@H](CC(C)C)NC(=O)[C@H](CCCCN)NC(=O)[C@@H](NC(=O)[C@@H](NC(=O)[C@H](CCC(=O)O)NC(=O)[C@H](CCC(=O)O)NC(=O)[C@H](CCSC)NC(=O)[C@H](Cc4c[nH]c5ccccc45)NC(=O)[C@H](CO)NC(=O)[C@H](C)N)C(C)C)[C@@H](C)CC)C(=O)NCC(=O)N[C@@H](CCCNC(=N)N)C(=O)N[C@@H](CCC(=O)O)C(=O)N[C@@H](CC(C)C)C(=O)N[C@@H](C(C)C)C(=O)N[C@@H](CCCNC(=N)N)C(=O)N[C@@H](C)C(=O)N[C@@H](CCC(N)=O)C(=O)N[C@@H]([C@@H](C)CC)C(=O)N[C@@H](C)C(=O)N[C@@H]([C@@H](C)CC)C(=O)N[C@H](C(=O)NCC(=O)N[C@@H](CCSC)C(=O)N[C@@H](CO)C(=O)N[C@H](C(=O)N[C@@H](Cc4c[nH]c5ccccc45)C(=O)N[C@@H](CO)C(=O)O)[C@@H](C)O)CSSC[C@@H](C(=O)O)NC(=O)[C@H](Cc4ccccc4)NC(=O)[C@H](CCCNC(=N)N)NC(=O)[C@H](C)NC(=O)[C@H](CC(C)C)NC(=O)[C@H](CO)NC(=O)[C@H](CCCNC(=N)N)NC(=O)[C@H](CCCCN)NC(=O)[C@H]([C@@H](C)O)NC3=O)NC2=O)cc1)C(=O)O [AQ1-EEEEPEEEEPEEEEPEEEE-Glu^γ-C14-CH3] | 0.33 nM
CCCCCCCCCCCCCCCC(=O)N[C@@H](CCC(=O)N[C@@H](CCC(=O)O)C(=O)N[C@@H](CCC(=O)O)C(=O)N[C@@H](CCC(=O)O)C(=O)N[C@@H](CCC(=O)O)C(=O)N1CCC[C@H]1C(=O)N[C@@H](CCC(=O)O)C(=O)N[C@@H](CCC(=O)O)C(=O)N[C@@H](CCC(=O)O)C(=O)N[C@@H](CCC(=O)O)C(=O)N1CCC[C@H]1C(=O)N[C@@H](CCC(=O)O)C(=O)N[C@@H](CCC(=O)O)C(=O)N[C@@H](CCC(=O)O)C(=O)N[C@@H](CCC(=O)O)C(=O)N1CCC[C@H]1C(=O)N[C@@H](CCC(=O)O)C(=O)N[C@@H](CCC(=O)O)C(=O)N[C@@H](CCC(=O)O)C(=O)N[C@@H](CCC(=O)O)C(=O)NCCON=C(C)c1ccc(C[C@H](N)C(=O)N[C@@H](CC(C)C)C(=O)N[C@@H](Cc2ccc(O)cc2)C(=O)N[C@@H](CO)C(=O)N[C@@H](C)C(=O)N[C@@H](CC(C)C)C(=O)N[C@@H](C)C(=O)N[C@@H](CC(N)=O)C(=O)N[C@@H](CCCCN)C(=O)N[C@H]2CSSC[C@@H]3NC(=O)CNC(=O)[C@H](C(C)C)NC(=O)[C@H](Cc4c[nH]cn4)NC(=O)[C@H](CSSC[C@H](NC(=O)[C@H](CC(C)C)NC(=O)[C@H](CCCCN)NC(=O)[C@@H](NC(=O)[C@@H](NC(=O)[C@H](CCC(=O)O)NC(=O)[C@H](CCC(=O)O)NC(=O)[C@H](CCSC)NC(=O)[C@H](Cc4c[nH]c5ccccc45)NC(=O)[C@H](CO)NC(=O)[C@H](C)N)C(C)C)[C@@H](C)CC)C(=O)NCC(=O)N[C@@H](CCCNC(=N)N)C(=O)N[C@@H](CCC(=O)O)C(=O)N[C@@H](CC(C)C)C(=O)N[C@@H](C(C)C)C(=O)N[C@@H](CCCNC(=N)N)C(=O)N[C@@H](C)C(=O)N[C@@H](CCC(N)=O)C(=O)N[C@@H]([C@@H](C)CC)C(=O)N[C@@H](C)C(=O)N[C@@H]([C@@H](C)CC)C(=O)N[C@H](C(=O)NCC(=O)N[C@@H](CCSC)C(=O)N[C@@H](CO)C(=O)N[C@H](C(=O)N[C@@H](Cc4c[nH]c5ccccc45)C(=O)N[C@@H](CO)C(=O)O)[C@@H](C)O)CSSC[C@@H](C(=O)O)NC(=O)[C@H](Cc4ccccc4)NC(=O)[C@H](CCCNC(=N)N)NC(=O)[C@H](C)NC(=O)[C@H](CC(C)C)NC(=O)[C@H](CO)NC(=O)[C@H](CCCNC(=N)N)NC(=O)[C@H](CCCCN)NC(=O)[C@H]([C@@H](C)O)NC3=O)NC2=O)cc1)C(=O)O [AQ1-EEEEPEEEEPEEEEPEEEE-Glu^γ-C15-CH3] | 0.34 nM
CC[C@H](C)[C@@H]1NC(=O)[C@H](C)NC(=O)[C@H]([C@@H](C)CC)NC(=O)[C@H](CCC(N)=O)NC(=O)[C@H](C)NC(=O)[C@H](CCCNC(=N)N)NC(=O)[C@H](C(C)C)NC(=O)[C@H](CC(C)C)NC(=O)[C@H](CCC(=O)O)NC(=O)[C@H](CCCNC(=N)N)NC(=O)CNC(=O)[C@@H](NC(=O)[C@H](CC(C)C)NC(=O)[C@H](CCCCN)NC(=O)[C@@H](NC(=O)[C@@H](NC(=O)[C@H](CCC(=O)O)NC(=O)[C@H](CCC(=O)O)NC(=O)[C@H](CCSC)NC(=O)[C@H](Cc2c[nH]c3ccccc23)NC(=O)[C@H](CO)NC(=O)[C@H](C)N)C(C)C)[C@@H](C)CC)CSSC[C@@H]2NC(=O)[C@@H](NC(=O)[C@H](CCCCN)NC(=O)[C@H](CC(N)=O)NC(=O)[C@H](C)NC(=O)[C@H](CC(C)C)NC(=O)[C@H](C)NC(=O)[C@H](CO)NC(=O)[C@H](Cc3ccc(O)cc3)NC(=O)[C@H](CC(C)C)NC(=O)[C@@H](N)Cc3ccc(C(C)=NOCCNC(=O)[C@H](CCC(=O)O)NC(=O)CNC(=O)CNC(=O)CNC(=O)CNC(=O)[C@H](CO)NC(=O)[C@H](CCCCN)NC(=O)CC[C@H](NC(=O)CCCCCCCCCCCCC(=O)O)C(=O)O)cc3)CSSC[C@H](NC(=O)CNC(=O)[C@H](C(C)C)NC(=O)[C@H](Cc3c[nH]cn3)NC2=O)C(=O)N[C@@H]([C@@H](C)O)C(=O)N[C@@H](CCCCN)C(=O)N[C@@H](CCCNC(=N)N)C(=O)N[C@@H](CO)C(=O)N[C@@H](CC(C)C)C(=O)N[C@@H](C)C(=O)N[C@@H](CCCNC(=N)N)C(=O)N[C@@H](Cc2ccccc2)C(=O)N[C@H](C(=O)O)CSSC[C@@H](C(=O)NCC(=O)N[C@@H](CCSC)C(=O)N[C@@H](CO)C(=O)N[C@H](C(=O)N[C@@H](Cc2c[nH]c3ccccc23)C(=O)N[C@@H](CO)C(=O)O)[C@@H](C)O)NC1=O [AQ1-EGGGGSK-Glu^γ-C13-COOH] | 0.31 nM
